Experimental data: patent US20100267561A1, “HERBICIDAL PYRIDAZINONE DERIVATIVES” (priority 2007, published 2010)

Experiments:
Experiment in all cases: Test B pre-/postemergence plant response
Format in all cases: in vivo
[1] = system: lambsquarters (Chenopodium album); settings: for Lambsquarters plant response rating: 8 g ai/ha
Method in brief: (§1)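 Preemergence and postemergence (plants 2-18 cm, 1- to 4-leaf stage) applications used test chemicals in a non-phytotoxic solvent with surfactant. Plants were held in a greenhouse 13 to 15 days, then rated visually against controls on a 0-100 scale (0 no effect, 100 complete control).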

[2] = system: woolly cupgrass (Eriochloa villosa); settings: for Cupgrass, Woolly plant response rating: 8 g ai/ha
Method in brief: as §1

[3] = system: blackgrass (Alopecurus myosuroides); settings: for Blackgrass plant response rating: 8 g ai/ha
Method in brief: as §1

[4] = system: pigweed (Amaranthus retroflexus); settings: for Pigweed plant response rating: 8 g ai/ha
Method in brief: as §1

[5] = system: cocklebur (Xanthium strumarium); settings: for Cocklebur plant response rating: 8 g ai/ha
Method in brief: as §1

[6] = system: catchweed bedstraw (Galium aparine); settings: Preemergence
Method in brief: as §1

[7] = system: large crabgrass (Digitaria sanguinalis); settings: for Crabgrass, Large plant response rating: 8 g ai/ha
Method in brief: as §1

[8] = system: green foxtail (Setaria viridis); settings: for Foxtail, Green plant response rating: 8 g ai/ha
Method in brief: as §1

[9] = system: kochia (Kochia scoparia); settings: for Kochia plant response rating: 8 g ai/ha
Method in brief: as §1

[10] = system: velvetleaf (Abutilon theophrasti); settings: for Velvetleaf plant response rating: 8 g ai/ha
Method in brief: as §1

[11] = system: yellow nutsedge (Cyperus esculentus); settings: for Nutsedge, Yellow plant response rating: 8 g ai/ha
Method in brief: as §1

[12] = system: common ragweed (Ambrosia elation); settings: for Ragweed plant response rating: 8 g ai/ha
Method in brief: as §1

[13] = system: corn (Zea mays); settings: for Corn plant response rating: 8 g ai/ha
Method in brief: as §1

[14] = system: wild oat (Avena fatua); settings: for Oat, Wild plant response rating: 8 g ai/ha
Method in brief: as §1

[15] = Postemergence, 16 g ai/ha, scale 0 to 100
[16] = Postemergence, 31 g ai/ha, scale 0 to 100, 0 no effect, 100 complete control
[17] = Postemergence, 62 g ai/ha, scale 0 to 100, 0 no effect, 100 complete control
[18] = Preemergence, 16 g ai/ha, scale 0 to 100 (0 no effect, 100 complete control)
[19] = Preemergence, 31 g ai/ha, 0 to 100 scale, 0 no effect, 100 complete control
[20] = Preemergence, 62 g ai/ha, scale 0 to 100

Cc1cc(-c2ccc(Cl)cc2)nn1-c1c(OC(=O)c2ccccc2Cl)cnn(C)c1=O [Compound 38]
Lambsquarters plant response rating ([1]; postemergence, 0-100 scale): 0 | Plant response rating, Lambsquarters [1, 15]: 0 | Plant response rating, Lambsquarters [1, 16]: 0 | Plant response rating, Lambsquarters [1, 17]: 0 | Plant response rating, Lambsquarters [1, 18]: 0 | Plant response rating, Lambsquarters [1, 19]: 0 | Plant response rating, Lambsquarters [1, 20]: 0 | Lambsquarters plant response rating ([1]; Preemergence, scale 0 to 100): 0 | Cupgrass, Woolly plant response rating ([2]; postemergence, 0-100 scale): 70 | Plant response rating, Cupgrass, Woolly [2, 15]: 98 | Plant response rating, Cupgrass, Woolly [2, 16]: 100 | Plant response rating, Cupgrass, Woolly [2, 17]: 100 | Plant response rating, Cupgrass, Woolly [2, 18]: 50 | Plant response rating, Cupgrass, Woolly [2, 19]: 90 | Plant response rating, Cupgrass, Woolly [2, 20]: 100 | Cupgrass, Woolly plant response rating ([2]; Preemergence, scale 0 to 100): 0 | Blackgrass plant response rating ([3]; postemergence, 0-100 scale): 0 | Plant response rating, Blackgrass [3, 15]: 40 | Plant response rating, Blackgrass [3, 16]: 80 | Plant response rating, Blackgrass [3, 17]: 98 | Plant response rating, Blackgrass [3, 19]: 90 | Plant response rating, Blackgrass [3, 20]: 100 | Blackgrass plant response rating ([3]; Preemergence, scale 0 to 100): 90 | Pigweed plant response rating ([4]; postemergence, 0-100 scale): 0 | Plant response rating, Pigweed [4, 15]: 0 | Plant response rating, Pigweed [4, 16]: 0 | Plant response rating, Pigweed [4, 17]: 0 | Plant response rating, Pigweed [4, 18]: 0 | Plant response rating, Pigweed [4, 19]: 0 | Plant response rating, Pigweed [4, 20]: 0 | Pigweed plant response rating ([4]; Preemergence, scale 0 to 100): 0 | Cocklebur plant response rating ([5]; postemergence, 0-100 scale): 0 | Plant response rating, Cocklebur [5, 15]: 0 | Plant response rating, Cocklebur [5, 16]: 0 | Plant response rating, Cocklebur [5, 17]: 0 | Plant response rating, Cocklebur [5, 18]: 0 | Plant response rating, Cocklebur [5, 19]: 0 | Plant response rating, Cocklebur [5, 20]: 0 | Cocklebur plant response rating ([5]; Preemergence, scale 0 to 100): 0 | Plant response rating, Galium ([6]; 16 g ai/ha, scale 0 to 100 (0 no effect, 100 complete control)): 0 | Plant response rating, Galium ([6]; 31 g ai/ha, 0 to 100 scale, 0 no effect, 100 complete control): 0 | Plant response rating, Galium ([6]; 62 g ai/ha, scale 0 to 100): 0 | Galium plant response rating ([6]; 8 g ai/ha, scale 0 to 100): 0 | Crabgrass, Large plant response rating ([7]; postemergence, 0-100 scale): 70 | Plant response rating, Crabgrass, Large [7, 15]: 70 | Plant response rating, Crabgrass, Large [7, 16]: 90 | Plant response rating, Crabgrass, Large [7, 17]: 100 | Plant response rating, Crabgrass, Large [7, 18]: 98 | Plant response rating, Crabgrass, Large [7, 19]: 100 | Plant response rating, Crabgrass, Large [7, 20]: 100 | Crabgrass, Large plant response rating ([7]; Preemergence, scale 0 to 100): 45 | Foxtail, Green plant response rating ([8]; postemergence, 0-100 scale): 30 | Plant response rating, Foxtail, Green [8, 15]: 75 | Plant response rating, Foxtail, Green [8, 16]: 80 | Plant response rating, Foxtail, Green [8, 17]: 98 | Plant response rating, Foxtail, Green [8, 18]: 100 | Plant response rating, Foxtail, Green [8, 19]: 100 | Plant response rating, Foxtail, Green [8, 20]: 100 | Foxtail, Green plant response rating ([8]; Preemergence, scale 0 to 100): 30 | Kochia plant response rating ([9]; postemergence, 0-100 scale): 0 | Plant response rating, Kochia [9, 15]: 0 | Plant response rating, Kochia [9, 16]: 0 | Plant response rating, Kochia [9, 17]: 0 | Plant response rating, Kochia [9, 18]: 0 | Kochia plant response rating ([9]; Preemergence, scale 0 to 100): 0 | Velvetleaf plant response rating ([10]; postemergence, 0-100 scale): 0 | Plant response rating, Velvetleaf [10, 15]: 0 | Plant response rating, Velvetleaf [10, 17]: 0 | Plant response rating, Velvetleaf [10, 18]: 0 | Plant response rating, Velvetleaf [10, 19]: 0 | Plant response rating, Velvetleaf [10, 20]: 0 | Velvetleaf plant response rating ([10]; Preemergence, scale 0 to 100): 0 | Nutsedge, Yellow plant response rating ([11]; postemergence, 0-100 scale): 0 | Plant response rating, Nutsedge, Yellow [11, 15]: 0 | Plant response rating, Nutsedge, Yellow [11, 16]: 0 | Plant response rating, Nutsedge, Yellow [11, 17]: 0 | Plant response rating, Nutsedge, Yellow [11, 18]: 0 | Plant response rating, Nutsedge, Yellow [11, 19]: 0 | Plant response rating, Nutsedge, Yellow [11, 20]: 0 | Nutsedge, Yellow plant response rating ([11]; Preemergence, scale 0 to 100): 0 | Ragweed plant response rating ([12]; postemergence, 0-100 scale): 0 | Plant response rating, Ragweed [12, 15]: 0 | Plant response rating, Ragweed [12, 16]: 0 | Plant response rating, Ragweed [12, 17]: 0 | Plant response rating, Ragweed [12, 18]: 0 | Plant response rating, Ragweed [12, 19]: 0 | Plant response rating, Ragweed [12, 20]: 0 | Ragweed plant response rating ([12]; Preemergence, scale 0 to 100): 0 | Corn plant response rating ([13]; postemergence, 0-100 scale): 90 | Plant response rating, Corn [13, 15]: 95 | Plant response rating, Corn [13, 16]: 100 | Plant response rating, Corn [13, 17]: 100 | Plant response rating, Corn [13, 18]: 50 | Plant response rating, Corn [13, 19]: 75 | Plant response rating, Corn [13, 20]: 95 | Corn plant response rating ([13]; Preemergence, scale 0 to 100): 45 | Oat, Wild plant response rating ([14]; postemergence, 0-100 scale): 80 | Plant response rating, Oat, Wild [14, 15]: 90 | Plant response rating, Oat, Wild [14, 16]: 95 | Plant response rating, Oat, Wild [14, 17]: 100 | Plant response rating, Oat, Wild [14, 18]: 60 | Plant response rating, Oat, Wild [14, 19]: 85 | Plant response rating, Oat, Wild [14, 20]: 90 | Oat, Wild plant response rating ([14]; Preemergence, scale 0 to 100): 0
